Data published in patent US20210283110A1, “COMPOUND FOR USE IN THE TREATMENT OF A DISEASE CHARACTERIZED BY DYSREGULATED MUCUS PRODUCTION AND/OR SECRETION” (UNIVERSITÄT REGENSBURG, priority 2018, published 2021).
Entries after “also recorded” stand apart in the source; their conditions may differ.

Assays:
[1] = target: T1, TMEM16F (Homo sapiens, UniProt Q4KMQ2); assay: Whole cell currents in HEK293 cells expressing TMEM16F (patch clamp); format: cell-based; details: overexpressed TMEM16F; niclosamide 1 μM
T1 construct: expressed in transfected cells; host or cells: HEK293 cells
T1 sequence (Q4KMQ2 1-910): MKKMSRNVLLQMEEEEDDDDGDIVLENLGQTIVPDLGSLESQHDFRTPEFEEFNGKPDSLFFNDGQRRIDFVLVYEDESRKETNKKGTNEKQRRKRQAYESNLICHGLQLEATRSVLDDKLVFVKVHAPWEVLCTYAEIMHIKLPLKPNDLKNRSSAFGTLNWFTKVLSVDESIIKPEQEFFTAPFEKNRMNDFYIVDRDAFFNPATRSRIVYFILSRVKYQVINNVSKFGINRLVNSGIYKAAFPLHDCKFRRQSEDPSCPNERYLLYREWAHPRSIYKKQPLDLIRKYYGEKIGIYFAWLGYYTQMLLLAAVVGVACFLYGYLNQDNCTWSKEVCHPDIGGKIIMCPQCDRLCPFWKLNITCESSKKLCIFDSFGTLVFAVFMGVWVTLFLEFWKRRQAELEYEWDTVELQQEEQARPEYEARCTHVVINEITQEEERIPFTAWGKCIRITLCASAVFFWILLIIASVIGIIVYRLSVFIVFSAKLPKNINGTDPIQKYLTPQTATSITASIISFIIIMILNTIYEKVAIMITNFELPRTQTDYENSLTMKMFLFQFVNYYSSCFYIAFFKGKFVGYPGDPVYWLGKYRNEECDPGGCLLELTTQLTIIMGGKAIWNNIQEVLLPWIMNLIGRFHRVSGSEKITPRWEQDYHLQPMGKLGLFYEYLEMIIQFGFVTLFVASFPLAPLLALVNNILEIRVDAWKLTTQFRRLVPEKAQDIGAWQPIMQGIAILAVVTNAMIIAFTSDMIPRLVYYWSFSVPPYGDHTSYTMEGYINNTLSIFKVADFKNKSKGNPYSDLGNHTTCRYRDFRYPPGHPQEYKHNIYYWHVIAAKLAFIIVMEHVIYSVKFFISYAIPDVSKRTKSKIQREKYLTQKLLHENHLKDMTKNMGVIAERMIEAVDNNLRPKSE
Experimental: FIG. 14: The TMEM16-inhibitor niflumic acid attenuates inflammatory airway disease. • A,B) OVA-sensitization induced pronounced goblet cell metaplasia as indicated by alcian blue positivity. Exposure to carbachol (CCH, 25 mg/ml, nebulizer) induced release of mucus and airway […]. Bars indicate […]. […] Mean±SEM; *significant inhibition by NFA (paired ttest). # significant difference when compared to OVA (unpaired t-test). (n) number of airways analysed or number of cells examined.
FIG. 15: Inhibition of TMEM16A and TMEM16F by niclosamide. • A) TMEM16A whole cell currents in overexpressing HEK293 cells. […]
OVA-induced allergic airway inflammation in mice caused pronounced airway goblet cell metaplasia. […] The two main TMEM16 paralogs expressed in airway epithelial and smooth muscle cells, TMEM16A and TMEM16F, were expressed in HEK293 cells and the whole cell currents upon activation by the Ca^2+ ionophore ionomycin (Iono) were measured. […]
Similar to TMEM16A, also overexpressed TMEM16F was inhibited by niclosamide (FIG. 15D). […] TMEM16A was activated by ionomycin and TMEM16A currents were measured as iodide quenching.

[2] = system: mice homozygous for the cystic fibrosis mutation CFTR^deltaF508/deltaF508; format: in vivo; details: 13 mg/kg/day intraperitoneally for 7 days, in corn oil; vs sham
Experimental: Animals were treated for 7 days and subsequently sacrificed. Jejunum was excised, fixed in Carnoy Solution and embedded in paraffin.

[3] = target: T2, TMEM16A (Homo sapiens, UniProt Q5XXA6); assay: ATP-induced current in HT29 cells expressing TMEM16A, patch clamp; format: cell-based; set-up: expressed in transfected cells; details: 1 μM compound applied simultaneously with ATP (wo μM), #p<0.01
T2 sequence (Q5XXA6 1-986): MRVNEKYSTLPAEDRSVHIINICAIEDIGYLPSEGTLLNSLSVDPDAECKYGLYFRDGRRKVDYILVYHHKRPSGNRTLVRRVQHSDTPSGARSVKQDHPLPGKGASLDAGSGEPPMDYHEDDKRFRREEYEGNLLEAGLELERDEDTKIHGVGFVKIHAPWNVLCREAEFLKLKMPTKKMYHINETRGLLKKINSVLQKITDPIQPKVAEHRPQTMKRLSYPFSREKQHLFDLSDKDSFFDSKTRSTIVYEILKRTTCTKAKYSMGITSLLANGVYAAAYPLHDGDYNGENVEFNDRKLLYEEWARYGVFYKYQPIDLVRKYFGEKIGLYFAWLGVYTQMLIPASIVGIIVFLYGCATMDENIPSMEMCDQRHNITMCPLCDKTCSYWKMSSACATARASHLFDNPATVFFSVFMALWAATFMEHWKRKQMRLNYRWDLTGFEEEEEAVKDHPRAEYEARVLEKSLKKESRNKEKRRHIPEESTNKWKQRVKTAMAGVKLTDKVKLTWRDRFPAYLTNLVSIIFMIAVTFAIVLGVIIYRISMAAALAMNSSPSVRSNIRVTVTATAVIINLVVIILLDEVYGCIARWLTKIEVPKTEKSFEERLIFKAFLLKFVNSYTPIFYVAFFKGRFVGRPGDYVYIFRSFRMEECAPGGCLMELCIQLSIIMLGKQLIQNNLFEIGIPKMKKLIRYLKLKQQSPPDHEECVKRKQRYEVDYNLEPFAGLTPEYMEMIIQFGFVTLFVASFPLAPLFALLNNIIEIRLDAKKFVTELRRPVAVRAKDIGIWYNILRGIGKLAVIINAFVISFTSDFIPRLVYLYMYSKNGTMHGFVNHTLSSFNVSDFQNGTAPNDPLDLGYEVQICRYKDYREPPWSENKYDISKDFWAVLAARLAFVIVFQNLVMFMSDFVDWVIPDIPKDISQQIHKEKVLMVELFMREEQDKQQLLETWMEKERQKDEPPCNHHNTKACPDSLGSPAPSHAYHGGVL
Source text: FIG. 2: ATP-induced current in HT29 cells expressing TMEM16A in an electrophysiological patch clamp investigation.
ATP was applied at a concentration of wo μM.

Question: For `O=C(Nc1ccc([N+](=O)[O-])cc1Cl)c1cc(Cl)ccc1O` [niclosamide, 5-chloro-N-(2-chloro-4-nitrophenyl)-2-hydroxybenzamide], which “TMEM16F current (current/voltage relationship)” value [1] is on record?
Answer: inhibited; also recorded: inhibition

Question: And the jejunal diameters [2]?
Answer: smaller

Question: What about the “mucus in jejunum (alcian blue)” value [2] of the same compound?
Answer: largely reduced

Question: And the “ATP-induced ion current arising from TMEM16A activation” value [3]?
Answer: significantly reduced
